In patent US10221172B2, “Benzothiazole and benzisothiazole-substituted compounds as mGluR4 allosteric potentiators, compositions, and methods of treating neurological dysfunction” (Vanderbilt University, priority 2015, dated 2019):

Biological target: human mGluR4 (Homo sapiens (Human), UniProt Q14833)
Experiment: mGluR4 potentiation assay, CHO cells transfected with human mGluR4, Ca2+-sensitive dye, EC20 agonist
Type: cell-based
Conditions: potentiation of mGluR4
Experimental: The disclosed compounds and compositions can be evaluated for their ability to act as a potentiator of metabotropic glutamate receptor activity, in particular mGluR4 activity, by any suitable known methodology known in the art. For example, Chinese Hamster Ovary (CHO) cells transfected with human mGluR4 or HEK cells co-transfected with rat mGluR4 and the G-protein regulated Inwardly Rectifying Potassium channel (GIRK) were plated in clear bottom assay plates for assay in a Hamamatsu FDSS Fluorometric Plate Reader. The cells were loaded with either a Ca2+-sensitive fluorescent dye or the thallium responsive dye and the plates were washed and placed into a suitable kinetic plate reader. For human mGluR4 assays, a fluorescence baseline was established for 3-5 seconds, the disclosed compounds were then added to the cells, and the response in cells was measured. Approximately two and a half minutes later, a concentration of mGluR4 orthosteric agonist (e.g. glutamate or L-AP4) eliciting approximately 20% (EC20) of the maximal agonist response was added to the cells, and the response was measured. Two minutes later, a concentration of mGluR4 agonist (e.g. glutamate or L-AP4) eliciting 80% (EC80) of the maximal agonist response was added to the cells, and the response was measured. For rat mGluR4/GIRK experiments, a baseline was established for approximately five seconds, disclosed compounds were added, and either an EC20 or EC80 concentration of agonist was added approximately two and one half minutes later. Potentiation of the agonist response of mGluR4 by the disclosed compounds was observed as an increase in response to the EC20 concentration of agonist in the presence of compound compared to the response to agonist in the absence of compound. Similarly, antagonism of the agonist response of mGluR4 by the disclosed compounds was observed as a decrease in response to the EC80 concentration of agonist in the presence of compound compared to the response to agonist in the absence of compound.
The above described assay operated in two modes. In the first mode, a range of concentrations of the disclosed compounds are added to cells, followed by a single fixed concentration of agonist. If the compound acts as a potentiatior, an EC50 value for potentiation and a maximum extent of potentiation by the compound at this concentration of agonist is determined by non-linear curve fitting. If the compound acts as a noncompetitive antagonist, an IC50 value is determined by non-linear curve fitting. In the second mode, several fixed concentrations of the disclosed compounds are added to various wells on a plate, followed by a range in concentrations of agonist for each concentration of disclosed compound. The EC50 values for the agonist at each concentration of compound are determined by non-linear curve fitting. A decrease in the EC50 value of the agonist with increasing concentrations of the sample compound (a leftward shift of the agonist concentration-response curve) is an indication of the degree of mGluR4 potentiation at a given concentration of the sample compound. A decrease in the maximal response of the agonist with increasing concentrations of the sample compounds, with or without a rightward shift in agonist potency, is an indication of the degree of noncompetitive antagonism at mGluR4. The second mode also indicates whether the sample compounds also affect the maximum response to mGluR4 to agonists.

[1] = main compound table, species not given
[2] = summary list repeated at the end of the table, species not stated

human mGluR4, sequence (Q14833 33-912): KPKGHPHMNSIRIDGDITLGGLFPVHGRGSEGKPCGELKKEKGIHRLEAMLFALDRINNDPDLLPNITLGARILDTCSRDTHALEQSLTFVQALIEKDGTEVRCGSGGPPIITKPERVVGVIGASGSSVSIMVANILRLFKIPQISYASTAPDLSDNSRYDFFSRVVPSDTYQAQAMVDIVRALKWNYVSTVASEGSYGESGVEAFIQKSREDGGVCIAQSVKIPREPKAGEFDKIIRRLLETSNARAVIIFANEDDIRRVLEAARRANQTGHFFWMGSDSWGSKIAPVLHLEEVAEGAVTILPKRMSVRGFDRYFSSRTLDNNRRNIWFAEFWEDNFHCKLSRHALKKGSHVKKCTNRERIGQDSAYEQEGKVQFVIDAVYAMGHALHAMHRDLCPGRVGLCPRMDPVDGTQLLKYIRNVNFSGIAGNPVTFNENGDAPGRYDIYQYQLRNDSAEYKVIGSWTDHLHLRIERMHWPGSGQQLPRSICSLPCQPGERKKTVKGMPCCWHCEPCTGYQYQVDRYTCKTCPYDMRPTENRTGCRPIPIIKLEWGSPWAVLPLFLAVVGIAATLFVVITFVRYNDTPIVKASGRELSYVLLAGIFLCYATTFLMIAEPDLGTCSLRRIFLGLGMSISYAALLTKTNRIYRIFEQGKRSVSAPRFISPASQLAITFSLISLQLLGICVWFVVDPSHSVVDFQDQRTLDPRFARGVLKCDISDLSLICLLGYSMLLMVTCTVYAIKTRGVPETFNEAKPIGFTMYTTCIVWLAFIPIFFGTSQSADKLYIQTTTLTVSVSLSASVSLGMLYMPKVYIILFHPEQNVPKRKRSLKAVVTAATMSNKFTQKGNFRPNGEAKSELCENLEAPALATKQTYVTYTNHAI

| Compound | EC50 [1] [nM] | EC50 [2] [nM] |
| --- | --- | --- |
| c1cnc2c(Nc3ccc4c(-c5ccsc5)nsc4c3)n[nH]c2n1 [Example 46, N-(1H-pyrazolo[3,4-b]pyrazin-3-yl)-3-(thiophen-3-yl)benzo[d] isothiazol-6-amine] | 144 | 144 |
| OCc1nsc2cc(Nc3n[nH]c4cccnc34)cnc12 [Example 47, (6-((1H-pyrazolo[4,3-b]pyridin-3-yl)amino)isothiazolo[4,5-b]pyridin-3-yl)methanol] | 1060 | 1060 |
| Cc1nsc2cc(Nc3n[nH]c4ncccc34)cnc12 [Example 48, 3-methyl-N-(1H-pyrazolo [3,4-b]pyridin-3-yl)isothiazolo[4,5-b] pyridin-6-amine] | 180 | 180 |
| c1cnc2[nH]nc(Nc3cnc4c(CN5CCCCC5)nsc4c3)c2c1 [Example 49, 3-(piperidin-1-ylmethyl)-N-(1H-pyrazolo[3,4-b]pyridin-3-yl)isothiazolo[4,5-b] pyridin-6-amine] | 1560 | 1560 |
| CN(Cc1nsc2cc(Nc3n[nH]c4cccnc34)cnc12)C1CC(F)(F)C1 [Example 52, 3-(((3,3-difluoro-cyclobutyl) (methyl)amino)methyl)-N-(1H-pyrazolo[4,3-b]pyridin-3-yl)isothiazolo[4,5-b] pyridin-6-amine] | 334 | 334 |
| CN(Cc1nsc2cc(Nc3n[nH]c4ncccc34)cnc12)C1CC(F)(F)C1 [Example 53, 3-(((3,3-difluorocyclobutyl) (methyl)amino)methyl)-N-(1H-pyrazolo[3,4-b]pyridin-3-yl)isothiazolo[4,5-b]pyridin-6-amine] | 568 | 568 |
| c1cnc2[nH]nc(Nc3cnc4c(CN5CCOCC5)nsc4c3)c2c1 [Example 55, 3-(morpholinomethyl)-N-(1H-pyrazolo[3,4-b]pyridin-3-yl)isothiazolo[4,5-b] pyridin-6-amine] | 1030 | 1030 |
| CC(C)(C)C1CCN(Cc2nsc3cc(Nc4n[nH]c5cccnc45)cnc23)CC1 [Example 56, 3-((4-(tert-butyl)piperidin-1-yl)methyl)-N-(1H-pyrazolo[4,3-b]pyridin-3-yl)isothiazolo[4,5-b] pyridin-6-amine] | 1390 | 1390 |
| CC(C)(C)C1CCN(Cc2nsc3cc(Nc4n[nH]c5ncccc45)cnc23)CC1 [Example 57, 3-((4-(tert-butyl)piperidin-1-yl)methyl)-N-(1H-pyrazolo[3,4-b]pyridin-3-yl)isothiazolo[4,5-b] pyridin-6-amine] | 4130 | 4130 |
| CC(=O)N1CCC(c2nsc3cc(Nc4n[nH]c5nccnc45)ccc23)CC1 [Example 63, 1-(4-(6-((1H-pyrazolo [3,4-b]pyrazin-3-yl)amino)benzo[d]isothiazol-3-yl)piperidin-1-yl)ethan-1-one] | 154 | 154 |
| CC(=O)N1CCC(c2nsc3cc(Nc4n[nH]c5ncccc45)ccc23)CC1 [Example 64, 1-(4-(6-((1H-pyrazolo[3,4-b]pyridin-3-yl)amino)benzo[d]isothiazol-3-yl)piperidin-1-yl)ethan-1-one] | 409 | 409 |
| O=C(C1CC1)N1CCC(c2nsc3cc(Nc4n[nH]c5cccnc45)ccc23)CC1 [Example 71, (4-(6-((1H-pyrazolo [4,3-b]pyridin-3-yl)amino)benzo[d]isothiazol-3-yl)piperidin-1-yl) (cyclopropyl) methanone] | 388 | 388 |
| O=C(C1CCOCC1)N1CCC(c2nsc3cc(Nc4n[nH]c5cccnc45)ccc23)CC1 [Example 72, (4-(6-((1H-pyrazolo [4,3-b]pyridin-3-yl)amino)benzo[d]isothiazol-3-yl)piperidin-1-yl) (tetrahydro-2H-pyran-4-yl)methanone] | 1200 | 1200 |

The remaining lines, values ahead:

| EC50 [1] [nM] | EC50 [2] [nM] | Compound |
| --- | --- | --- |
| 81.1 | 81.1 | FC1(F)CCN(Cc2nsc3cc(Nc4n[nH]c5cccnc45)cnc23)CC1 [Example 50, 3-((4,4-difluoropiperidin-1-yl)methyl)-N-(1H-pyrazolo[4,3-b]pyridin-3-yl) isothiazolo[4,5-b]pyridin-6-amine] |
| 247 | 247 | FC1CCN(Cc2nsc3cc(Nc4n[nH]c5cccnc45)cnc23)CC1 [Example 51, 3-((4-fluoropiperidin-1-yl)methyl)-N-(1H-pyrazolo[4,3-b]pyridin-3-yl)isothiazolo[4,5-b] pyridin-6-amine] |
| 630 | 630 | c1cnc2c(Nc3cnc4c(CN5CCOCC5)nsc4c3)n[nH]c2c1 [Example 54, 3-(morpholinomethyl)-N-(1H-pyrazolo[4,3-b]pyridin-3-yl)isothiazolo[4,5-b] pyridin-6-amine] |
| 3740 | 3740 | c1cnc2c(Nc3cnc4c(CN5CCCC5)nsc4c3)n[nH]c2c1 [Example 58, N-(1H-pyrazolo[4,3-b]pyridin-3-yl)-3-(pyrrolidin-1-ylmethyl) isothiazolo [4,5-b]pyridin-6-amine] |
| 353 | 353 | C[C@H]1CN(Cc2nsc3cc(Nc4n[nH]c5cccnc45)cnc23)CCO1 [Example 59, (S)-3-((2-methylmorpholino)methyl)-N-(1H-pyrazolo[4,3-b]pyridin-3-yl)isothiazolo[4,5-b] pyridin-6-amine] |
| 147 | 147 | CC1(C)CN(Cc2nsc3cc(Nc4n[nH]c5cccnc45)cnc23)CCO1 [Example 60] |
| 55.9 | 55.9 | FC1(F)CCCN(Cc2nsc3cc(Nc4n[nH]c5cccnc45)cnc23)C1 [Example 61, 3-((3,3-difluoropiperidin-1-yl)methyl)-N-(1H-pyrazolo[4,3-b]pyridin-3-yl)isothiazolo[4,5-b] pyridin-6-amine] |
| 101 | 101 | FC1(F)CCCN(Cc2nsc3cc(Nc4n[nH]c5ncccc45)cnc23)C1 [Example 62, 3-((3,3-difluoropiperidin-1-yl)methyl)-N-(1H-pyrazolo[3,4-b]pyridin-3-yl)isothiazolo[4,5-b] pyridin-6-amine] |
